# Reference: PubChem BioAssay AID2060506 (Molecular Pharmacology Branch, DTP, NCI, 2025)
# System: 598228-144-R-J1-PDC complex spheroid viability
# Test: Anticancer human tumor 598228-144-R-J1-PDC patient-derived serous endometrial adenocarcinoma cell line growth inhibition [GQUAD]
# Conditions: for IC50: curve of first compound; for viability, T/C: stronger effect = lower value
# In short: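 Tumor cells were grown as complex spheroids with HUVEC endothelial cells and mesenchymal stem cells as stroma. G-quadruplex stabilizers were combined with targeted agents over half-log dilutions from near the clinical Cmax, or from 10 microM.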
# [1] = second compound 0.0316 µM, first compound 0.0316 µM
# [2] = second compound 0.0316 µM, first compound 0.1 µM
# [3] = second compound 0.0316 µM, first compound 0.316 µM
# [4] = second compound 0.0316 µM, first compound 1 µM
# [5] = second compound 0.0316 µM, first compound 3.16 µM
# [6] = second compound 0.0316 µM, first compound 10 µM
# [7] = second compound 0.1 µM, first compound 0.0316 µM
# [8] = second compound 0.1 µM, first compound 0.1 µM
# [9] = second compound 0.1 µM, first compound 0.316 µM
# [10] = second compound 0.1 µM, first compound 1 µM
# [11] = second compound 0.1 µM, first compound 3.16 µM
# [12] = second compound 0.1 µM, first compound 10 µM
# [13] = second compound 0.316 µM, first compound 0.0316 µM
# [14] = second compound 0.316 µM, first compound 0.1 µM
# [15] = second compound 0.316 µM, first compound 0.316 µM
# [16] = second compound 0.316 µM, first compound 1 µM
# [17] = second compound 0.316 µM, first compound 3.16 µM
# [18] = second compound 0.316 µM, first compound 10 µM
# [19] = second compound 1 µM, first compound 0.0316 µM
# [20] = second compound 1 µM, first compound 0.1 µM
# [21] = second compound 1 µM, first compound 0.316 µM
# [22] = second compound 1 µM, first compound 1 µM
# [23] = second compound 1 µM, first compound 3.16 µM
# [24] = second compound 1 µM, first compound 10 µM
# [25] = second compound 3.16 µM, first compound 0.0316 µM
# [26] = second compound 3.16 µM, first compound 0.1 µM
# [27] = second compound 3.16 µM, first compound 0.316 µM
# [28] = second compound 3.16 µM, first compound 1 µM
# [29] = second compound 3.16 µM, first compound 3.16 µM
# [30] = second compound 3.16 µM, first compound 10 µM
# [31] = second compound 10 µM, first compound 0.0316 µM
# [32] = second compound 10 µM, first compound 0.1 µM
# [33] = second compound 10 µM, first compound 0.316 µM
# [34] = second compound 10 µM, first compound 1 µM
# [35] = second compound 10 µM, first compound 3.16 µM
# [36] = second compound 10 µM, first compound 10 µM
# 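Further: spheroids exposed to the agents for one week before reading.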
# 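Wherever viability, T/C is given: percent of vehicle DMSO control viability so 100% = untreated growth.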
compound,measurement,setting,value
CC(C)(O)C1CCC(Nc2ccc3ncc(-c4cccc(C(F)(F)F)c4)n3n2)CC1 (stereo not drawn) + CN(C)c1ccc(Nc2c3ccc(NC(=O)CCN4CCCC4)cc3nc3cc(NC(=O)CCN4CCCC4)ccc23)cc1,IC50,second compound 0.0316 µM,1860 nM
same,IC50,second compound 0.1 µM,1910 nM
same,IC50,second compound 0.316 µM,2100 nM
same,IC50,second compound 1 µM,1890 nM
same,IC50,second compound 3.16 µM,1970 nM
same,IC50,second compound 10 µM,1810 nM
same,"viability, T/C",[1],112%
same,"viability, T/C",[2],95.7%
same,"viability, T/C",[3],79.2%
same,"viability, T/C",[4],78.5%
same,"viability, T/C",[5],25.1%
same,"viability, T/C",[6],27.3%
same,"viability, T/C",[7],96.3%
same,"viability, T/C",[8],99%
same,"viability, T/C",[9],112%
same,"viability, T/C",[10],81.4%
same,"viability, T/C",[11],26.6%
same,"viability, T/C",[12],24.1%
same,"viability, T/C",[13],98.9%
same,"viability, T/C",[14],87.8%
same,"viability, T/C",[15],112%
same,"viability, T/C",[16],85.3%
same,"viability, T/C",[17],31%
same,"viability, T/C",[18],24.1%
same,"viability, T/C",[19],101%
same,"viability, T/C",[20],87.9%
same,"viability, T/C",[21],128%
same,"viability, T/C",[22],79%
same,"viability, T/C",[23],29.5%
same,"viability, T/C",[24],23.4%
same,"viability, T/C",[25],110%
same,"viability, T/C",[26],104%
same,"viability, T/C",[27],107%
same,"viability, T/C",[28],89.1%
same,"viability, T/C",[29],22.6%
same,"viability, T/C",[30],21.8%
same,"viability, T/C",[31],93.3%
same,"viability, T/C",[32],75.3%
same,"viability, T/C",[33],81.7%
same,"viability, T/C",[34],76.6%
same,"viability, T/C",[35],24.8%
same,"viability, T/C",[36],16.6%
Nc1ccn(C2OC(CO)C(O)C2(F)F)c(=O)n1 (stereo not drawn) + Cc1[nH]c2ccc(F)cc2c1-c1nc2c3cccnc3c3ncccc3c2[nH]1,IC50,second compound 0.0316 µM,439 nM
same,IC50,second compound 0.1 µM,136 nM
same,IC50,second compound 0.316 µM,135 nM
same,IC50,second compound 1 µM,44.8 nM
same,IC50,second compound 3.16 µM,< 31.6 nM
same,IC50,second compound 10 µM,< 31.6 nM
same,"viability, T/C",[1],64.6%
same,"viability, T/C",[2],54.6%
same,"viability, T/C",[3],52.1%
same,"viability, T/C",[4],47.9%
same,"viability, T/C",[5],43.9%
same,"viability, T/C",[6],41%
same,"viability, T/C",[7],54.8%
same,"viability, T/C",[8],57.5%
same,"viability, T/C",[9],45.3%
same,"viability, T/C",[10],40%
same,"viability, T/C",[11],39.9%
same,"viability, T/C",[12],44.9%
same,"viability, T/C",[13],60.7%
same,"viability, T/C",[14],52.3%
same,"viability, T/C",[15],48.3%
same,"viability, T/C",[16],39.9%
same,"viability, T/C",[17],43.6%
same,"viability, T/C",[18],49.7%
same,"viability, T/C",[19],53.2%
same,"viability, T/C",[20],49.1%
same,"viability, T/C",[21],46.2%
same,"viability, T/C",[22],36.3%
same,"viability, T/C",[23],50.4%
same,"viability, T/C",[24],41.9%
same,"viability, T/C",[25],36.3%
same,"viability, T/C",[26],36.7%
same,"viability, T/C",[27],38.5%
same,"viability, T/C",[28],37.9%
same,"viability, T/C",[29],32.4%
same,"viability, T/C",[30],44.5%
same,"viability, T/C",[31],51.6%
same,"viability, T/C",[32],37.6%
same,"viability, T/C",[33],37.8%
same,"viability, T/C",[34],47.5%
same,"viability, T/C",[35],35.7%
same,"viability, T/C",[36],32%
CC[C@@]1(O)C(=O)OCc2c1cc1n(c2=O)Cc2cc3c(CN(C)C)c(O)ccc3nc2-1 + CN(C)c1ccc(Nc2c3ccc(NC(=O)CCN4CCCC4)cc3nc3cc(NC(=O)CCN4CCCC4)ccc23)cc1,IC50,second compound 0.0316 µM,> 316 nM
same,IC50,second compound 0.1 µM,> 316 nM
same,IC50,second compound 0.316 µM,97.7 nM
same,IC50,second compound 1 µM,87 nM
same,IC50,second compound 3.16 µM,225 nM
same,IC50,second compound 10 µM,75.7 nM
same,"viability, T/C","second compound 0.0316 µM, first compound 0.000999 µM",84.4%
same,"viability, T/C","second compound 0.0316 µM, first compound 0.00316 µM",84.2%
same,"viability, T/C","second compound 0.0316 µM, first compound 0.00999 µM",105%
same,"viability, T/C",[1],91.4%
same,"viability, T/C","second compound 0.0316 µM, first compound 0.0999 µM",54.6%
same,"viability, T/C",[3],59.4%
same,"viability, T/C","second compound 0.1 µM, first compound 0.000999 µM",99.4%
same,"viability, T/C","second compound 0.1 µM, first compound 0.00316 µM",95.9%
same,"viability, T/C","second compound 0.1 µM, first compound 0.00999 µM",95.3%
same,"viability, T/C",[7],75.5%
same,"viability, T/C","second compound 0.1 µM, first compound 0.0999 µM",56.6%
same,"viability, T/C",[9],56.5%
same,"viability, T/C","second compound 0.316 µM, first compound 0.000999 µM",95.8%
same,"viability, T/C","second compound 0.316 µM, first compound 0.00316 µM",104%
same,"viability, T/C","second compound 0.316 µM, first compound 0.00999 µM",101%
same,"viability, T/C",[13],72.8%
same,"viability, T/C","second compound 0.316 µM, first compound 0.0999 µM",48.5%
same,"viability, T/C",[15],50.5%
same,"viability, T/C","second compound 1 µM, first compound 0.000999 µM",84.3%
same,"viability, T/C","second compound 1 µM, first compound 0.00316 µM",91.8%
same,"viability, T/C","second compound 1 µM, first compound 0.00999 µM",92%
same,"viability, T/C",[19],102%
same,"viability, T/C","second compound 1 µM, first compound 0.0999 µM",42.6%
same,"viability, T/C",[21],45.8%
same,"viability, T/C","second compound 3.16 µM, first compound 0.000999 µM",97.8%
same,"viability, T/C","second compound 3.16 µM, first compound 0.00316 µM",89.9%
same,"viability, T/C","second compound 3.16 µM, first compound 0.00999 µM",86.4%
same,"viability, T/C",[25],94.6%
same,"viability, T/C","second compound 3.16 µM, first compound 0.0999 µM",57.5%
same,"viability, T/C",[27],46.8%
same,"viability, T/C","second compound 10 µM, first compound 0.000999 µM",66.9%
same,"viability, T/C","second compound 10 µM, first compound 0.00316 µM",90.9%
same,"viability, T/C","second compound 10 µM, first compound 0.00999 µM",81.5%
same,"viability, T/C",[31],62.6%
same,"viability, T/C","second compound 10 µM, first compound 0.0999 µM",48.5%
same,"viability, T/C",[33],42.3%
CC(C)(O)C1CCC(Nc2ccc3ncc(-c4cccc(C(F)(F)F)c4)n3n2)CC1 (stereo not drawn) + Cc1[nH]c2ccc(F)cc2c1-c1nc2c3cccnc3c3ncccc3c2[nH]1,IC50,second compound 0.0316 µM,2400 nM
same,IC50,second compound 0.1 µM,2370 nM
same,IC50,second compound 0.316 µM,2240 nM
same,IC50,second compound 1 µM,1290 nM
same,IC50,second compound 3.16 µM,< 31.6 nM
same,IC50,second compound 10 µM,1330 nM
same,"viability, T/C",[1],106%
same,"viability, T/C",[2],112%
same,"viability, T/C",[3],109%
same,"viability, T/C",[4],86.5%
same,"viability, T/C",[5],38.8%
same,"viability, T/C",[6],30.7%
same,"viability, T/C",[7],133%
same,"viability, T/C",[8],121%
same,"viability, T/C",[9],103%
same,"viability, T/C",[10],95.3%
same,"viability, T/C",[11],32.2%
same,"viability, T/C",[12],30.1%
same,"viability, T/C",[13],77.5%
same,"viability, T/C",[14],85.5%
same,"viability, T/C",[15],81.3%
same,"viability, T/C",[16],93.8%
same,"viability, T/C",[17],35.2%
same,"viability, T/C",[18],26.3%
same,"viability, T/C",[19],58.7%
same,"viability, T/C",[20],67%
same,"viability, T/C",[21],57.5%
same,"viability, T/C",[22],55.8%
same,"viability, T/C",[23],30.6%
same,"viability, T/C",[24],24%
same,"viability, T/C",[25],30.7%
same,"viability, T/C",[26],40.9%
same,"viability, T/C",[27],38.8%
same,"viability, T/C",[28],39.7%
same,"viability, T/C",[29],23.1%
same,"viability, T/C",[30],27.7%
same,"viability, T/C",[31],76.4%
same,"viability, T/C",[32],52.6%
same,"viability, T/C",[33],63.2%
same,"viability, T/C",[34],57.2%
same,"viability, T/C",[35],25.9%
same,"viability, T/C",[36],30.7%
